Results published in the Kinase Knowledgebase extract (Sharma et al. 2016).

What follows are molecules tested against MAPK14 (UniProt Q16539) (assay: Inhibition of MAPK14 Kinase Activity).
MAPK14, sequence (Q16539 whole entry, looked up): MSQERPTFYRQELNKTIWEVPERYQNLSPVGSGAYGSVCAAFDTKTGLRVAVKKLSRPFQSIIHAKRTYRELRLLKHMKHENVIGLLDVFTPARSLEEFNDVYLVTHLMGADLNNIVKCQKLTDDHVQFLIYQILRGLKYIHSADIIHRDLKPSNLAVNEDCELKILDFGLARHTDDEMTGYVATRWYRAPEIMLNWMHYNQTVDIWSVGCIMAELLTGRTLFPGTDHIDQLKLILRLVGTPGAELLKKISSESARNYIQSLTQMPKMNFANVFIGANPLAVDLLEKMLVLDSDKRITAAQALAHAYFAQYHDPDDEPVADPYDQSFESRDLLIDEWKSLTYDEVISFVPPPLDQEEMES

Row | Compound | IC50 [µM]
1 | CCn1cnc(-c2ccccc2)c1-c1ccc2nc(N)n(S(=O)(=O)C(C)C)c2c1 | ≤ 5
2 | CC(C)S(=O)(=O)n1c(N)nc2ccc(-c3nc(C4CCN(C(=O)OC(C)(C)C)CC4)[nH]c3-c3ccccc3)cc21 | ≤ 5
3 | CC(C)S(=O)(=O)n1c(N)nc2ccc(-c3c(-c4ccccc4)ncn3C3CCOCC3)cc21 | ≤ 5
4 | CC(C)S(=O)(=O)n1c(N)nc2ccc(-c3c(-c4ccccc4)nc(-c4c(F)cccc4F)n3C)cc21 | ≤ 5
5 | CC(C)S(=O)(=O)n1c(N)nc2ccc(-c3nc(-c4ccccc4)[nH]c3-c3ccccc3)cc21 | ≤ 5
6 | CC(C)S(=O)(=O)n1c(N)nc2ccc(-c3nc(C4CCN(C)CC4)[nH]c3-c3ccccc3)cc21 | ≤ 5
7 | CC(C)S(=O)(=O)n1c(N)nc2ccc(-c3nc(-c4c(Cl)cccc4Cl)[nH]c3-c3ccc(F)cc3)cc21 | ≤ 5
8 | CC(C)S(=O)(=O)n1c(N)nc2ccc(-c3nc(-c4cccc(OCCN5CCCC5)c4)[nH]c3-c3ccccc3)cc21 | ≤ 5
9 | CC(C)S(=O)(=O)n1c(N)nc2ccc(-c3nc(C(C)(C)C)[nH]c3-c3ccccc3)cc21 | ≤ 5
10 | Cc1ccc(-c2nc(-c3ccc4nc(N)n(S(=O)(=O)C(C)C)c4c3)c(-c3ccccc3)[nH]2)cc1 | ≤ 5
11 | CC(C)n1cnc(-c2ccccc2)c1-c1ccc2nc(N)n(S(=O)(=O)C(C)C)c2c1 | ≤ 5
12 | CC(C)S(=O)(=O)n1c(N)nc2ccc(-c3nc[nH]c3-c3ccc(F)cc3F)cc21 | ≤ 5
13 | Nc1nc2ccc(-c3nc(-c4cccs4)[nH]c3-c3ccccc3)cc2[nH]1 | ≤ 5
14 | CCN(CC)CCOc1cccc(-c2nc(-c3ccc4nc(N)n(S(=O)(=O)C(C)C)c4c3)c(-c3ccccc3)[nH]2)c1 | ≤ 5
15 | CC(C)S(=O)(=O)n1c(N)nc2ccc(-c3nc(-c4ccc(N)cc4F)[nH]c3-c3ccccc3)cc21 | ≤ 5
16 | CC(C)S(=O)(=O)n1c(N)nc2ccc(-c3c(-c4ccccc4)ncn3Cc3cccc(F)c3)cc21 | ≤ 5
17 | CC(C)c1nc(-c2ccc3nc(N)n(S(=O)(=O)C(C)C)c3c2)c(-c2ccc(F)cc2)[nH]1 | ≤ 5
18 | CC(C)S(=O)(=O)n1c(N)nc2ccc(-c3nc(C=O)[nH]c3-c3ccccc3)cc21 | ≤ 5
19 | CC(C)S(=O)(=O)n1c(N)nc2ccc(-c3c(-c4cccc(F)c4)ncn3Cc3cccnc3)cc21 | ≤ 5
20 | CC(C)S(=O)(=O)n1c(N)nc2ccc(-c3c(-c4ccccc4)ncn3[C@H](C)CO)cc21 | ≤ 5
21 | CC(C)S(=O)(=O)n1c(N)nc2ccc(-c3nc(-c4cccs4)[nH]c3-c3ccccc3)cc21 | ≤ 5

Row | Compound | IC50 [µM]
22 | CC(C)S(=O)(=O)n1c(N)nc2ccc(-c3c(-c4ccc(F)cc4)ncn3C)cc21 | ≤ 5
23 | CC(C)S(=O)(=O)n1c(N)nc2ccc(-c3nc(-c4ccccc4F)[nH]c3-c3ccccc3)cc21 | ≤ 5
24 | CC(C)S(=O)(=O)n1c(N)nc2ccc(-c3c(-c4ccccc4)ncn3-c3ccc([N+](=O)[O-])cc3)cc21 | ≤ 5
25 | CC(C)S(=O)(=O)n1c(N)nc2ccc(-c3c(-c4ccc(F)cc4F)ncn3C)cc21 | ≤ 5
26 | CC(C)CN1CCC(c2nc(-c3ccc4nc(N)n(S(=O)(=O)C(C)C)c4c3)c(-c3ccccc3)[nH]2)CC1 | ≤ 5
27 | CC(C)S(=O)(=O)n1c(N)nc2ccc(-c3nc(-c4ccc(Cl)cc4)[nH]c3-c3ccccc3)cc21 | ≤ 5
28 | Nc1nc2ccc(-c3nc(-c4c(F)cccc4F)[nH]c3-c3ccccc3)cc2n1S(=O)(=O)C1CCCC1 | ≤ 5
29 | CC(C)c1nc(-c2ccc3nc(N)n(S(=O)(=O)C(C)C)c3c2)c(-c2ccccc2)[nH]1 | ≤ 5
30 | CC(C)S(=O)(=O)n1c(N)nc2ccc(-c3nc(CN(C)C)[nH]c3-c3ccccc3)cc21 | ≤ 5
31 | CC(C)S(=O)(=O)n1c(N)nc2ccc(-c3nc(-c4c(F)cccc4Cl)[nH]c3-c3ccccc3)cc21 | ≤ 5
32 | CC(C)S(=O)(=O)n1c(N)nc2ccc(-c3c(-c4ccccc4)ncn3Cc3cccnc3)cc21 | ≤ 5
33 | COc1ccc(Cn2cnc(-c3ccccc3)c2-c2ccc3ncn(S(=O)(=O)C(C)C)c3c2)cc1 | ≤ 5
34 | Cc1ccsc1-c1nc(-c2ccc3nc(N)n(S(=O)(=O)C(C)C)c3c2)c(-c2ccccc2)[nH]1 | ≤ 5
35 | CC(C)S(=O)(=O)n1c(N)nc2ccc(-c3c(-c4ccccc4)ncn3CCCc3ccccc3)cc21 | ≤ 5
36 | CCc1nc(-c2ccc3nc(N)n(S(=O)(=O)C(C)C)c3c2)c(-c2ccc(F)cc2)[nH]1 | ≤ 5
37 | COc1ccc(Cn2c(CO)nc(-c3ccccc3)c2-c2ccc3nc(N)n(S(=O)(=O)C(C)C)c3c2)cc1 | ≤ 5
38 | CC(C)S(=O)(=O)n1c(N)nc2ccc(-c3c(-c4ccccc4)ncn3CCNC(=O)OC(C)(C)C)cc21 | ≤ 5
39 | CC(C)S(=O)(=O)n1c(N)nc2ccc(-c3nc(-c4ccc(Cl)s4)[nH]c3-c3ccccc3)cc21 | ≤ 5
40 | Cc1cc(F)ccc1-c1[nH]c(-c2ccc(F)cc2)nc1-c1ccc2nc(N)n(S(=O)(=O)C(C)C)c2c1 | ≤ 5
41 | CC(C)S(=O)(=O)n1c(N)nc2ccc(-c3nc(C4CCN(CCO)CC4)[nH]c3-c3ccccc3)cc21 | ≤ 5
42 | CC(C)S(=O)(=O)n1c(N)nc2ccc(-c3nc(-c4ccc(F)cc4F)[nH]c3-c3ccc(F)cc3F)cc21 | ≤ 5

Row | Compound | IC50 [µM]
43 | CC(C)S(=O)(=O)n1c(N)nc2ccc(-c3nc(COCc4ccccc4)[nH]c3-c3ccccc3)cc21 | ≤ 5
44 | CC(C)S(=O)(=O)n1c(N)nc2ccc(-c3[nH]n(-c4ccccc4)c(=O)c3-c3ccccc3)cc21 | ≤ 5
45 | CC(C)S(=O)(=O)n1c(N)nc2ccc(-c3nc(-c4cc(F)cc(F)c4)[nH]c3-c3ccccc3)cc21 | ≤ 5
46 | CCN1CCC(c2nc(-c3ccc4nc(N)n(S(=O)(=O)C(C)C)c4c3)c(-c3ccccc3)[nH]2)CC1 | ≤ 5
47 | CC(C)S(=O)(=O)n1c(N)nc2ccc(-c3sc(-c4ccccc4)nc3-c3ccccc3)cc21 | ≤ 5
48 | CC(C)S(=O)(=O)n1c(N)nc2ccc(-c3c(-c4ccccc4F)nc(Br)n3C3CCCCC3)cc21 | ≤ 5
49 | CC(C)S(=O)(=O)n1c(N)nc2ccc(-c3nc(C4CCN(Cc5nccn5C)CC4)[nH]c3-c3ccccc3)cc21 | ≤ 5
50 | CC(C)S(=O)(=O)n1c(N)nc2ccc(-c3nc(-c4cccc(F)c4F)[nH]c3-c3ccccc3)cc21 | ≤ 5
51 | CNc1ccc(-c2nc(-c3ccc4nc(N)n(S(=O)(=O)C(C)C)c4c3)c(-c3ccccc3)[nH]2)c(F)c1 | ≤ 5
52 | CCOC(=O)/C=C/c1nc(-c2ccc3nc(N)n(S(=O)(=O)C(C)C)c3c2)c(-c2ccccc2)[nH]1 | ≤ 5
53 | CC(C)S(=O)(=O)n1c(N)nc2ccc(-c3c(-c4ccc(F)cc4)ncn3C3CCN(Cc4ccccc4)CC3)cc21 | ≤ 5
54 | CC(C)S(=O)(=O)n1c(N)nc2ccc(-c3c(-c4ccccc4F)nc(-c4c[nH]nn4)n3C3CC3)cc21 | ≤ 5
55 | NCCc1nc2ccc(-c3nc(-c4c(F)cccc4F)[nH]c3-c3ccccc3)cc2[nH]1 | ≤ 5
56 | CC(C)S(=O)(=O)n1c(N)nc2ccc(-c3c(-c4ccc(F)cc4)ncn3C3CCN(C(=O)OC(C)(C)C)CC3)cc21 | ≤ 5
57 | CC(C)S(=O)(=O)n1c(N)nc2ccc(-c3c(-c4ccc(F)cc4)ncn3[C@H]3CC[C@H](O)CC3)cc21 | ≤ 5
58 | CC(C)S(=O)(=O)n1c(N)nc2ccc(-c3nc(-c4ccc(OCCN5CCCCC5)cc4)[nH]c3-c3ccccc3)cc21 | ≤ 5
59 | Cc1nc(-c2ccc3nc(N)n(S(=O)(=O)C(C)C)c3c2)c(-c2ccc(F)cc2F)[nH]1 | ≤ 5
60 | CC(C)S(=O)(=O)n1c(N)nc2ccc(-c3c(-c4ccsc4)ncn3[C@H]3CC[C@H](O)CC3)cc21 | ≤ 5
61 | CC(C)S(=O)(=O)n1c(N)nc2ccc(-c3c(-c4ccccc4F)nc(-c4ccc(Cl)cc4)n3C3CC3)cc21 | ≤ 5
62 | Clc1nc2ccc(-c3c(-c4ccccc4)ncn3C3CCCCC3)cc2s1 | ≤ 5
63 | CC(C)S(=O)(=O)n1c(N)nc2ccc(-c3nc(C4CCN(Cc5ccccc5)CC4)[nH]c3-c3ccccc3)cc21 | ≤ 5

Row | Compound | IC50 [µM]
64 | CC(C)S(=O)(=O)n1c(N)nc2ccc(-c3nc(C4CC4)[nH]c3-c3ccc(F)cc3)cc21 | ≤ 5
65 | CC(C)S(=O)(=O)n1c(N)nc2ccc(-c3c(-c4cccc(F)c4)ncn3C3CC3)cc21 | ≤ 5
66 | CC(C)S(=O)(=O)n1c(N)nc2ccc(-c3nc(-c4cccc(OCCN5CCCCC5)c4)[nH]c3-c3ccccc3)cc21 | ≤ 5
67 | COc1ccc(-c2nc(-c3ccc4nc(N)n(S(=O)(=O)C(C)C)c4c3)c(-c3ccccc3)[nH]2)cc1 | ≤ 5
68 | CC(C)S(=O)(=O)n1c(N)nc2ccc(-c3nc[nH]c3-c3ccccc3F)cc21 | ≤ 5
69 | CC(C)S(=O)(=O)n1c(N)nc2ccc(-c3c(-c4ccc(F)cc4F)ncn3[C@H]3CC[C@H](O)CC3)cc21 | ≤ 5
70 | CC(C)S(=O)(=O)n1c(N)nc2ccc(-c3nc(-c4cccc(C(F)(F)F)c4)[nH]c3-c3ccccc3)cc21 | ≤ 5
71 | CC(C)S(=O)(=O)n1c(N)nc2ccc(-c3nc(-c4ccccc4SC(F)(F)F)[nH]c3-c3ccccc3)cc21 | ≤ 5
72 | CC(C)S(=O)(=O)n1c(N)nc2ccc(-c3cc(C(C)(C)C)nn3-c3ccccc3)cc21 | ≤ 5
73 | CC(C)S(=O)(=O)n1c(N)nc2ccc(-c3nc(C4CCOCC4)[nH]c3-c3ccc(F)cc3)cc21 | ≤ 5
74 | CC(C)S(=O)(=O)n1c(N)nc2ccc(-c3c(-c4ccccc4)ncn3Cc3ccccc3F)cc21 | ≤ 5
75 | CC(C)S(=O)(=O)n1c(N)nc2ccc(-c3nc(CC(C)(C)C)[nH]c3-c3ccc(F)cc3)cc21 | ≤ 5
76 | CC(C)S(=O)(=O)n1c(N)nc2ccc(-c3nc(C4CCN(CCN(C)C)CC4)[nH]c3-c3ccccc3)cc21 | ≤ 5
77 | CC(C)S(=O)(=O)n1c(N)nc2ccc(-c3c(-c4cccc(F)c4F)ncn3[C@H]3CC[C@H](O)CC3)cc21 | ≤ 5
78 | CC(=O)Nc1ccc(-c2nc(-c3ccc4nc(N)n(S(=O)(=O)C(C)C)c4c3)c(-c3ccccc3)[nH]2)cc1 | ≤ 5
79 | CC(C)S(=O)(=O)n1c(N)nc2ccc(-c3c(-c4ccccc4F)nc(C#CCCO)n3C3CC3)cc21 | ≤ 5
80 | CCOC(=O)N1CCC(n2cnc(-c3ccccc3F)c2-c2ccc3nc(N)n(S(=O)(=O)C(C)C)c3c2)CC1 | ≤ 5
81 | CC(C)S(=O)(=O)n1c(N)nc2ccc(-c3nc(-c4ccccc4N4CCN(C)CC4)[nH]c3-c3ccccc3)cc21 | ≤ 5
82 | Cc1nc(-c2ccc3nc(N)n(S(=O)(=O)C(C)C)c3c2)c(-c2ccccc2)[nH]1 | ≤ 5
83 | CC(C)S(=O)(=O)n1c(N)nc2ccc(-c3nc(-c4ccc(S(C)(=O)=O)cc4)[nH]c3-c3ccccc3)cc21 | ≤ 5
